Like-named read-outs stand apart in the source and are kept apart here.
Key:
[1] = Liver microsomal stability, rat; assay type: in vitro ADME; details: male, Sprague Dawley
Method: Microsomal Incubation: Experimental Procedure
Pooled human liver microsomes (pooled male and female), pooled rat liver microsomes (male Sprague Dawley rats) and pooled dog liver microsomes (male Beagle dog) are purchased from a reputable commercial supplier and stored at −80° C. prior to use.
The final incubation volume is 50 μL. A control incubation is included for each compound tested where 0.1 M phosphate buffer pH 7.4 is added instead of NADPH (minus NADPH). Two control compounds are included with each species. All incubations are performed singularly for each test compound.
The reactions are stopped by transferring 25 μL of incubate to 50 μL methanol at the appropriate time points. The termination plates are centrifuged at 2,500 rpm for 20 min at 4° C. to precipitate the protein. Following protein precipitation, the sample supernatants are combined in cassettes of up to 4 compounds, internal standard is added and samples analysed by LC-MS/MS. From a plot of ln peak area ratio (compound peak area/internal standard peak area) against time, the gradient of the line is determined. Subsequently, half-life and intrinsic clearance are calculated

human P-gp (MDR1) = assay: MDR1-MDCK permeability; assay type: in vitro ADME; details: dog
Method: MDR1-MDCK Permeability: Experimental Procedure
MDR1-MDCK cells obtained from the NIH (Rockville, Md., USA) are used between passage numbers 6-30. Cells are seeded onto Millipore Multiscreen Transwell plates at 3.4×10^5 cells/cm2. The cells are cultured in DMEM and media is changed on day 3. On day 4 the permeability study is performed. Cell culture and assay incubations are carried out at 37° C. in an atmosphere of 5% CO2 with a relative humidity of 95%. On the day of the assay, the monolayers are prepared by rinsing both basolateral and apical surfaces twice with Hanks Balanced Salt Solution (HBSS) at the desired pH warmed to 37° C. Cells are then incubated with HBSS at the desired pH in both apical and basolateral compartments for 40 min to stabilise physiological parameters.
The dosing solutions are prepared by diluting test compound with assay buffer to give a final test compound concentration of 10 μM (final DMSO concentration of 1% v/v). The fluorescent integrity marker lucifer yellow is also included in the dosing solution. Analytical standards are prepared from test compound DMSO dilutions and transferred to buffer, maintaining a 1% v/v DMSO concentration.
For assessment of A-B permeability, HBSS is removed from the apical compartment and replaced with test compound dosing solution. The apical compartment insert is then placed into a companion plate containing fresh buffer (containing 1% v/v DMSO). For assessment of B-A permeability, HBSS is removed from the companion plate and replaced with test compound dosing solution. Fresh buffer (containing 1% v/v DMSO) is added to the apical compartment insert, which is then placed into the companion plate.
At 60 min the apical compartment inserts and the companion plates are separated and apical and basolateral samples diluted for analysis.
Test compound permeability is assessed in duplicate. Compounds of known permeability characteristics are run as controls on each assay plate.
Test and control compounds are quantified by LC-MS/MS cassette analysis using an 8-point calibration with appropriate dilution of the samples. The starting concentration (C0) is determined from the dosing solution and the experimental recovery calculated from C0 and both apical and basolateral compartment concentrations.
The integrity of the monolayer throughout the experiment is checked by monitoring lucifer yellow permeation using fluorimetric analysis. Lucifer yellow permeation is high if monolayers have been damaged.

[2] = Plasma protein binding (equilibrium dialysis), rat; assay type: in vitro ADME; details: plasma (100%)
Method: (§1) Protein Binding Determination: Experimental Procedure
(§2) Solutions of test compound (5 μM, 0.5% final DMSO concentration) are prepared in buffer (pH 7.4) and 100% species-specific plasma. The experiment is performed using equilibrium dialysis with the two compartments separated by a semi-permeable membrane. The buffer solution is added to one side of the membrane and the plasma solution to the other side. After equilibration, samples are taken from both sides of the membrane. Standards are prepared in plasma and buffer and are incubated at 37° C.
(§3) Test compound incubations are performed in duplicate. A control compound is included in each experiment.
(§4) The solutions for each batch of compounds are combined into two groups (protein-free and protein-containing), then cassette analysed by LC-MS/MS using two sets of calibration standards for protein-free (7 points) and protein-containing solutions (6 points).

[3] = Plasma protein binding (equilibrium dialysis), dog; assay type: in vitro ADME; details: plasma (100%)
Method: as §1, §2, §3, §4

[4] = In vivo pharmacokinetics in rats (IV and PO); set-up: species or system male Sprague Dawley rats; details: rat; for Vd: 1 mg/kg (IV)
Method: The pharmacokinetics of compounds were studied in vivo in male Sprague Dawley rats at doses of 1 mg/kg (IV) and 10 mg/kg (PO).
Sprague Dawley rats were treated with experimental compounds via intravenous and oral administration. Three animals for each route of administration were used with serial blood sampling at ten time points post dosing of compound.
Animals were weighed and used if between 200-250 g. Serial blood samples were collected at 0.02, 0.08, 0.25, 0.50, 1, 2, 4, 6, 8 and 24 hours post dosing. […] Blood samples were delivered into an anticoagulant (sodium heparin) and centrifuged at 4° C. Plasma samples were subsequently stored frozen at less than −20° C. prior to analysis.
Following protein precipitation with acetonitrile, samples were analysed with tandem liquid chromatography/mass spectrometry using electrospray ionisation. A full matrix curve with internal standards was employed and PK parameters were calculated.
In a similar manner, oral administration was performed by gavage at doses of 5 or 10 mg/kg at a concentration of 5 mg/ml in 1% Methyl cellulose (Sigma M7140), 0.1% Tween 80 in water. Serial samples were taken as described above.
RV039 was administered at doses of 1 mg/kg (IV) and 5 mg/kg (PO).

SMILES: NCc1ccc2c(c1)nc(CN1C(=O)C3(CC3)c3ccc(F)cc31)n2CCCC(F)(F)F [Example 1, 1′-{[5-(Aminomethyl)-1-(4,4,4-trifluorobutyl)-1H-1,3-benzodiazol-2-yl]methyl}-6′-fluoro-1′,2′-dihydrospiro[cyclopropane-1,3′-indole]-2′-one]
- half-life at 3 μM ([1]; pH 7.4, rat liver microsomes, 3 μM compound, read-out: Liver Microsomal Stability T1/2, rat): 1.33 h
- Papp A→B at 60 min, 10 μM (human P-gp (MDR1); A-B, 10 μM, 60 min, read-out: Permeability (Human Pgp transfected) MDCK Papp A-B): 0.5 ×10⁻⁶ cm/s
- Papp B→A at 60 min, 10 μM (human P-gp (MDR1); B-A, 10 μM, 60 min, read-out: Permeability (Human Pgp transfected) MDCK Papp B-A): 73 ×10⁻⁶ cm/s
- fraction unbound at 5 μM ([2]; pH 7.4, 5 μM, read-out: PPB fraction unbound, rat): 0.52
- fraction unbound at 5 μM ([3]; pH 7.4, 5 μM, read-out: PPB fraction unbound, dog): 0.27
- bioavailability ([4]; in vivo, male Sprague Dawley rats, 1 mg/kg (IV) and 10 mg/kg (PO), read-out: Bioavailability): 42%
- Vd ([4]; in vivo, male Sprague Dawley rats, read-out: Volume of distribution): 22 L/kg
- Tmax ([4]; in vivo, male Sprague Dawley rats, 10 mg/kg (PO), read-out: Tmax PO): 2.7 h

SMILES: CC(C)CCn1c(CN2C(=O)C3(CC3)c3ccccc32)nc2cc(CN)ccc21 [RV039, 1′-((5-(aminomethyl)-1-isopentyl-1H-benzo[d]imidazol-2-yl)methyl)spiro[cyclopropane-1,3′-indolin]-2′-one, reference compound]
- half-life at 3 μM ([1]; pooled liver microsomes, pH 7.4, Comparative Example 2, read-out: Liver Microsomal Stability T1/2, rat (Table 5)): > 1.58 h
- Papp A→B at 60 min, 10 μM (human P-gp (MDR1)): 0.42 ×10⁻⁶ cm/s
- Papp B→A at 60 min, 10 μM (human P-gp (MDR1)): 49 ×10⁻⁶ cm/s
- fraction unbound at 5 μM ([2]; pH 7.4, Comparative Example 2, read-out: PPB fraction unbound, rat (Table 5)): 0.1
- fraction unbound at 5 μM ([3]; pH 7.4, Comparative Example 2, read-out: PPB fraction unbound, dog (Table 5)): 0.1
- bioavailability ([4]; male, Sprague Dawley, plasma, rats, 1 mg/kg (IV) and 5 mg/kg (PO), Comparative Example 3, read-out: Bioavailability (Table 6)): 4.5%
- Vd ([4]; male, Sprague Dawley, plasma, rats, Comparative Example 3, read-out: Volume of distribution (Table 6)): 47 L/kg
- Tmax ([4]; male, Sprague Dawley, plasma, rats, 5 mg/kg (PO), Comparative Example 3, read-out: Tmax PO (Table 6)): 7.3 h
